According to patent US10266497B2 (ABIDE THERAPEUTICS, INC., priority 2017, dated 2019):
Like-named read-outs stand apart in the source and are kept apart here.

What was measured:
[1] = biological target: T1, MAGL (Mus musculus, UniProt O35678); assay: Mouse brain proteomes from inhibitor treated mice (oral gavage, sacrificed 4 h after administration); assay type: in vivo; set-up: mouse brain membrane fraction for mouse assays; from tissue; host or cells: mouse brain (membrane fraction in vitro; brain proteomes of treated C57Bl/6J mice in vivo); details: 5 mg/kg oral gavage, brain proteome 4 h after administration, read-out: MAGL % inh. 5 mg/kg (mouse)
T1 sequence (O35678 1-303): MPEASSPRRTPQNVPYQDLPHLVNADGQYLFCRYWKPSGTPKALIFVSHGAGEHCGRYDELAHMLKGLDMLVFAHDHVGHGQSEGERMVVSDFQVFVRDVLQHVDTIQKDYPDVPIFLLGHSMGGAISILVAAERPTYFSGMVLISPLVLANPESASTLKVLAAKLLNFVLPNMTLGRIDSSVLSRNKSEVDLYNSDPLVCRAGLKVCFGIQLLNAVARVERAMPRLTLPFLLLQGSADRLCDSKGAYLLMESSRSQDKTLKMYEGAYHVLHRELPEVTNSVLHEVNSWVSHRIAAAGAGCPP

[2] = biological target: T2, MAGL (Homo sapiens, UniProt Q99685); assay: In vitro competitive activity-based protein profiling, MAGL, human; details: read-out: MAGL % inh. 1 μM (human)
T2 sequence (Q99685 1-303): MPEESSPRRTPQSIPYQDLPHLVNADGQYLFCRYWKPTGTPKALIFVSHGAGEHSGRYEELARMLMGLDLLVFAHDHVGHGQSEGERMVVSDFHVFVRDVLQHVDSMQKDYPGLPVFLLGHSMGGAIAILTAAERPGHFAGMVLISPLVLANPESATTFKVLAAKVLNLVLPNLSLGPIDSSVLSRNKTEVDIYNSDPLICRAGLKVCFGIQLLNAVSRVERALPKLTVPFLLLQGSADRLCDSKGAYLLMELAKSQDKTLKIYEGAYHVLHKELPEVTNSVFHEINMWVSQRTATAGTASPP

[3] = biological target: T1, MAGL; assay: In vitro competitive activity-based protein profiling, MAGL, mouse; details: read-out: MAGL % inh. 1 μM (mouse)

SMILES | inhibition at 5 mg/kg ([1]; C57Bl/6J mice) [%] | inhibition at 1 µM [2] [%] | inhibition at 1 µM [3] [%] | inhibition at 5 mg/kg [1] [%]
O=C(O)c1ccn(C(=O)N2CCC3(CCCN3C(=O)c3ccc(C(F)(F)F)cc3N3CCCC3)CC2)n1 [Example 403, 1-(1-(2-(pyrrolidin-1-yl)-4-(trifluoromethyl)benzoyl)-1,8-diazaspiro[4.5]decane-8-carbonyl)-1H-pyrazole-3-carboxylic acid] | 0 to 25 | > 75 | > 75 | 
Cc1ccc(Oc2cccc(CN3CCN(C(=O)n4ccc(C(=O)O)n4)CC3)c2)cc1 [Example 251, 1-(4-(3-(p-tolyloxy)benzyl)pi-perazine-1-carbonyl)-1H-pyrazole-3-carboxylic acid] |  | > 75 | > 75 | 0 to 25
O=C(O)c1ccn(C(=O)N2CCC(Oc3cc(N4CCCC4)cc(C(F)(F)F)c3)CC2)n1 [Example 308, 1-(4-(3-(pyrrolidin-1-yl)-5-(trifluoromethyl)phenoxy)piperidine-1-carbonyl)-1H-pyrazole-3-carboxylic acid] |  | > 75 | > 75 | 0 to 25
CN(Cc1ccc(C(F)(F)F)cc1N1CCCCC1)C1(C)CCN(C(=O)n2ccc(C(=O)O)n2)CC1 [Example 397, 1-(4-methyl-4-(methyl(2-(piperidin-1-yl)-4-(trifluoromethyl)benzyl)amino)piper-idine-1-carbonyl)-1H-pyrazole-3-carboxylic acid] | 0 to 25 | > 75 | > 75 | 
O=C(O)c1nn(C(=O)N2CCC3(CCN(Cc4cccc(Cl)c4C(F)(F)F)C3)CC2)cc1Cl [Example 26, 4-Chloro-1-(2-(3-chloro-2-(trifluoromethyl)benzyl)-2,8-diazaspiro[4.5]decane-8-carbonyl)-1H-pyrazole-3-carboxylic Acid] |  | > 75 | > 75 | 0 to 25
O=C(O)c1ccn(C(=O)N2CCC(Oc3ccc(C(F)(F)F)cc3N3CCCC3)CC2)n1 [Example 307, 1-(4-(2-(pyrrolidin-1-yl)-4-(trifluoromethyl)phenoxy)piperidine-1-carbonyl)-1H-pyrazole-3-carboxylic acid] |  | > 75 | > 75 | 0 to 25
O=C(O)c1nn(C(=O)N2CCC3(CCN(Cc4cc(Cl)cc(C(F)(F)F)c4)C3)CC2)cc1Cl [Example 388, 4-chloro-1-(2-(3-chloro-5-(trifluoromethyl)benzyl)-2,8-diazaspiro[4.5]decane-8-carbonyl)-1H-pyrazole-3-carboxylic acid] |  | > 75 | > 75 | 0 to 25
C[C@H]1CN(Cc2cccc(Oc3ccc(Cl)cc3)c2)CCN1C(=O)n1ccc(C(=O)O)n1 [Example 311, (S)-1-(4-(3-(4-chlorophenoxy)benzyl)-2-methylpiperazine-1-carbonyl)-1H-pyrazole-3-carboxylic acid] |  | > 75 | > 75 | 0 to 25
O=C(O)c1ccn(C(=O)N2C[C@H]3C[C@H](Oc4cccc(-c5cccnc5)c4)C[C@H]3C2)n1 [Example 241, 1-(trans-5-(3-(pyridin-3-yl)phenoxy)octa-hydrocyclopenta[c]pyrrole-2-carbonyl)-1H-pyrazole-3-carboxylic acid] |  | > 75 | > 75 | 0 to 25
C[C@H]1CN(Cc2ccc(C(F)(F)F)cc2N2CCCC2)CCN1C(=O)n1ccc(C(=O)O)n1 [Example 328, (S)-1-(2-methyl-4-(2-(pyrrolidin-1-yl)-4-(trifluoromethyl)benzyl)piperazine-1-carbonyl)-1H-pyrazole-3-carboxylic acid] |  | > 75 | > 75 | 0 to 25
O=C(O)c1ccn(C(=O)N2C[C@H]3C[C@H](Oc4cc(Cl)cc(Cl)c4)C[C@H]3C2)n1 [Example 230, 1-(trans-5-(3,5-dichlorophenoxy)octahydrocyclopenta [c]pyrrole-2-carbonyl)-1H-pyrazole-3-carboxylic acid] |  | > 75 | > 75 | 0 to 25
CN(Cc1ccc(C(F)(F)F)c(N2CCCC2)c1)C1(C)CCN(C(=O)n2ccc(C(=O)O)n2)CC1 [Example 385, 1-(4-methyl-4-(methyl(3-(pyrrolidin-1-yl)-4-(trifluoromethyl)benzyl)amino)piper-idine-1-carbonyl)-1H-pyrazole-3-carboxylic acid] |  | > 75 | > 75 | 0 to 25
C[C@@H]1CN(Cc2ccc(C(F)(F)F)cc2N2C3CCC2COC3)CCN1C(=O)n1ccc(C(=O)O)n1 [Example 393, 1-((2R)-4-(2-(3-oxa-8-azabicyclo[3.2.1]octan-8-yl)-4-(trifluoromethyl)benzyl)-2-methylpiperazine-1-carbonyl)-1H-pyrazole-3-carboxylic acid] |  | > 75 | > 75 | 0 to 25
C[C@@H]1C[C@H](N(C)Cc2cccc(C(F)(F)F)c2)CCN1C(=O)n1ccc(C(N)=O)n1 [Example 257, 1-((2R,4R)-2-methyl-4-(methyl(3-(trifluoromethyl)benzyl)amino)piper-idine-1-carbonyl)-1H-pyrazole-3-carboxamide] |  | > 75 | > 75 | > 75
CN(Cc1cc(C(F)(F)F)ccc1N1CCCC1)C1(C)CCN(C(=O)n2ccc(C(=O)O)n2)CC1 [Example 384, 1-(4-methyl-4-(methyl(2-(pyrrolidin-1-yl)-5-(trifluoromethyl)benzyl)amino)piper-idine-1-carbonyl)-1H-pyrazole-3-carboxylic acid] |  | > 75 | > 75 | 0 to 25
O=C(O)c1ccn(C(=O)N2CCC3(CCCN3Cc3ccc(C(F)(F)F)cc3N3CCC(F)CC3)CC2)n1 [Example 413, 1-(1-(2-(4-fluoropiperidin-1-yl)-4-(trifluoromethyl)benzyl)-1,8-diazaspiro[4.5]decane-8-carbonyl)-1H-pyrazole-3-carboxylic acid] | 0 to 25 | > 75 | > 75 | 
Cc1cc(-c2ccccc2)ccc1CN1CCN(C(=O)n2ccc(C(=O)O)n2)[C@H](C)C1 [Example 245, (R)-1-(2-methyl-4-((3-methyl-[1,1′-biphenyl]-4-yl)methyl)piperazine-1-carbonyl)-1H-pyrazole-3-carboxylic acid] |  | > 75 | > 75 | 0 to 25
CN(Cc1cc(N2CCCC2)cc(C(F)(F)F)c1)C1(C)CCN(C(=O)n2ccc(C(=O)O)n2)CC1 [Example 381, 1-(4-methyl-4-(methyl(3-(pyrrolidin-1-yl)-5-(trifluoromethyl)benzyl)amino)piper-idine-1-carbonyl)-1H-pyrazole-3-carboxylic acid] |  | > 75 | > 75 | 0 to 25
C[C@H]1CC[C@H](C)N1c1cc(C(F)(F)F)ccc1CN1CCN(C(=O)n2ccc(C(=O)O)n2)CC1 [Example 360, 1-(4-(2-((2S,5S)-2,5-dimethylpyrrolidin-1-yl)-4-(trifluoromethyl)benzyl)piperazine-1-carbonyl)-1H-pyrazole-3-carboxylic acid] |  | > 75 | > 75 | 0 to 25
C[C@H]1CN(Cc2cc(F)cc(Oc3ccc(Cl)cc3)c2)CCN1C(=O)n1ccc(C(=O)O)n1 [Example 347, (S)-1-(4-(3-(4-chlorophenoxy)-5-fluorobenzyl)-2-methylpiperazine-1-carbonyl)-1H-pyrazole-3-carboxylic acid] |  | > 75 | > 75 | 0 to 25
C[C@@H]1C[C@@H](N(C)Cc2cccc(C(F)(F)F)c2)CCN1C(=O)n1ccc(C(N)=O)n1 [Example 260, 1-((2R,4S)-2-methyl-4-(methyl(3-(trifluoromethyl)benzyl)amino)piper-idine-1-carbonyl)-1H-pyrazole-3-carboxamide] |  | > 75 | > 75 | > 75
Cc1cn(C(=O)N2C[C@H]3C[C@H](OCc4cc(F)cc(Cl)c4)C[C@H]3C2)nc1C(=O)O [Example 252, 1-(trans-5-((3-chloro-5-fluorobenzyl)oxy)octahydrocyclopenta [c]pyrrole-2-carbonyl)-4-methyl-1H-pyrazole-3-carboxylic acid] |  | > 75 | > 75 | 0 to 25
